In paper PMC9597602, “Metal Complexes as Antifungals? From a Crowd-Sourced Compound Library to the First In Vivo Experiments” (JACS Au, 2022):
Like-named read-outs stand apart in the source and are kept apart here.

Legend:
[1] = tested on: Cryptococcus deuterogattii ATCC 32609 VGII; assay: Antifungal MIC assay, extended panel; type: cell-based; conditions: extended panel; 50% inhibition, MIC score 2
[2] = tested on: Candida tropicalis ATCC 750; assay: Antifungal MIC assay, extended panel; type: cell-based; conditions: extended panel; 50% inhibition, MIC score 2
[3] = tested on: Candida auris CBS12373 KCTC 17810; assay: Antifungal MIC assay, extended panel; type: cell-based; conditions: extended panel; for MIC: second batch, ≥80 or ≥50% inhibition, read-out: MIC* Candida auris CBS12373
Method in brief: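 This broth microdilution MIC test followed the reference method for antifungal susceptibility testing of yeasts. Fluconazole served as the internal control on every plate. Inoculum came from 3-day YPD agar cultures, was diluted in YNB to 2.5 × 10^3 CFU/mL in 50 μL per well of 384-well plates, and was incubated 36 h at 35 °C. Compounds ran as two technical replicates across two to four independent assays.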

[4] = tested on: Candida auris CBS10913 JCM 15448; assay: Antifungal MIC assay, extended panel; type: cell-based; conditions: extended panel
Method in brief: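 This broth dilution MIC test for yeast used colonies cultured 3 days at 30 °C on YPD agar, suspended to 1 × 10^6 to 5 × 10^6 CFU/mL by OD530 and diluted with YNB. Cells were added at a final 2.5 × 10^3 CFU/mL (50 μL total) to 384-well plates with compound, incubated unshaken at 35 °C for 36 h, with fluconazole as an internal control on every plate.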

[5] = tested on: Cryptococcus neoformans H99 ATCC 208821 type strain; assay: Antifungal MIC assay; type: cell-based; conditions: for MIC Cn: initial CO-ADD dose-response screening, ≥80% growth inhibition
Method in brief: (§1)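 Read-out was the lowest compound concentration producing ≥80% growth inhibition, scored per CLSI M27. Yeast cells, precultured on YPD agar, were tested in YNB medium at a final 2.5 × 10^3 CFU/mL over 36 h at 35 °C.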

[6] = tested on: human red blood cells; type: cell-based
Experimental: Human whole blood (Australian Red Cross) was washed three times with 3 vol of 0.9% NaCl and resuspended in a concentration of 0.5 × 10^8 cells/mL, determined by a manual cell count in a Neubauer hemocytometer. […] After incubation, the plates were centrifuged at 1000g for 10 min to pellet cells and debris; 25 μL of the supernatant was then transferred to reading plates (384-well, polystyrene plated (PS), Corning CLS3680), with hemolysis determined by measuring the supernatant absorbance at […] (OD405) using cells without inhibitors as negative control and cells with 1% Triton X-100 (Sigma T8787) as positive control. […] Melittin (Sigma M2272) was used as internal control on each plate.

[7] = tested on: HEK-293 human embryonic kidney cells ATCC CRL-1573
Experimental: The cells were incubated together with the compounds for 20 h at 37 °C in 5% CO2. […] Tamoxifen (Sigma T5648) was used as internal control on each plate.

[8] = tested on: Cryptococcus deuterogattii CBS7750 VGII; Serotype B; assay: Antifungal MIC assay, extended panel; type: cell-based; conditions: extended panel; 50% inhibition, MIC score 2
[9] = tested on: Cryptococcus deuterogattii CBS7750 VGII; Serotype B; assay: Antifungal MIC assay, extended panel; type: cell-based; conditions: extended panel, second batch; ≥80 or ≥50% inhibition
Experimental: (§2) For the fungal assays, both fungi (yeast) strains were cultured for 3 days on Yeast Extract-Peptone Dextrose (YPD; Becton Dickinson 242720) agar at 30 °C. A yeast suspension of 1 × 10^6 to 5 × 10^6 CFU/mL (as determined by OD530) was prepared from five colonies from the agar plates, subsequently diluted with Yeast Nitrogen Base media (YNB; Becton Dickinson 233520), and added to each well of the compound containing plates (384-well plates, NBS; Corning CLS3640), giving a final cell density of 2.5 × 10^3 CFU/mL and a total volume of 50 μL. Plates were covered and incubated at 35 °C for 36 h without shaking. […] MIC values were recorded as the lowest concentration at which the growth was inhibited by ≥80%, equivalent to ″optically clear-to-slightly hazy″ or MIC score of 0–1 as per CLSI guidelines M27 Reference Method for Broth Dilution Antifungal Susceptibility Testing of Yeasts. […] Fluconazole (Sigma F8929) was used as internal control on each plate for all strains. All compounds were tested as two technical replicates in two to four independent biological assays, n = 4–8 final data.

[10] = tested on: Cryptococcus deuterogattii ATCC 32609 VGII; assay: Antifungal MIC assay, extended panel; type: cell-based; conditions: extended panel, second batch; ≥80 or ≥50% inhibition
Experimental: as §2

[11] = tested on: Candida tropicalis ATCC 750; assay: Antifungal MIC assay, extended panel; type: cell-based; conditions: extended panel, second batch; ≥80 or ≥50% inhibition
Experimental: as §2

[12] = tested on: Candida glabrata ATCC 90030 NCCLS 84; assay: Antifungal MIC assay, extended panel; type: cell-based; conditions: extended panel, second batch; ≥80 or ≥50% inhibition
Experimental: as §2

[13] = tested on: Candida albicans ATCC 90028 NCCLS11; assay: Antifungal MIC assay; type: cell-based; conditions: for MIC Ca: initial CO-ADD dose-response screening, ≥80% growth inhibition
Method in brief: as §1

[14] = tested on: Escherichia coli ATCC 25922 FDA control strain; assay: CO-ADD antibacterial MIC assay; type: cell-based; conditions: initial CO-ADD dose-response screening; ≥80% growth inhibition
Experimental: (§3) For the all the bacterial assays, each bacterial strain was cultured in cation-adjusted Mueller Hinton broth (CAMHB; Bacto Laboratories 212322) at 37 °C overnight. A sample of each culture was then diluted 40-fold in fresh CAMHB and incubated at 37 °C for 1.5–3 h. The resultant mid-log phase cultures were diluted with CAMHB (CFU/mL measured by OD600) and then added to each well of the compound-containing plates (384-well non-binding surface (NBS) plates; Corning CLS3640), giving a cell density of 5 × 10^5 CFU/mL and a total volume of 50 μL. Plates were covered and incubated at 37 °C for 18 h without shaking. Inhibition of bacterial growth was determined by measuring the absorbance at 600 nm (OD600) using media only as negative control and bacteria without inhibitors as positive control. MIC values were determined as the lowest concentration at which the growth was inhibited by ≥80% (equivalent to no visible growth by the eye). Colistin sulfate (Sigma C4461) and vancomycin HCl (Sigma 861987) were used as internal controls on each plate for Gram-negative and Gram-positive bacteria, respectively. All compounds were tested as two technical replicates in two independent biological assays, n = 4 final data.

[15] = tested on: Pseudomonas aeruginosa ATCC 27853 QC control strain; assay: CO-ADD antibacterial MIC assay; type: cell-based; conditions: initial CO-ADD dose-response screening; ≥80% growth inhibition
Experimental: as §3

[16] = tested on: Acinetobacter baumannii ATCC 19606 type strain; assay: CO-ADD antibacterial MIC assay; type: cell-based; conditions: initial CO-ADD dose-response screening; ≥80% growth inhibition
Experimental: as §3

[17] = tested on: methicillin-resistant Staphylococcus aureus ATCC 43300; assay: CO-ADD antibacterial MIC assay; type: cell-based; conditions: initial CO-ADD dose-response screening; ≥80% growth inhibition
Experimental: as §3

[18] = tested on: Candida glabrata ATCC 90030 NCCLS 84; assay: Antifungal MIC assay, extended panel; type: cell-based; conditions: extended panel; 50% inhibition, MIC score 2
[19] = extended panel, second batch, ≥80 or ≥50% inhibition
[20] = extended panel, 50% inhibition, MIC score 2
[21] = initial CO-ADD screening, 1 h, 10% hemolysis
[22] = ranges obtained upon retesting, new batch

| SMILES | MIC [3] [µM] | MIC Cn [5] | RBC HC10 [6, 21] | RBC HC10 [6, 22] [µM] | MIC [9] [µM] | MIC Cryptococcus deuterogattii ATCC 32609 [10] [µM] | MIC [12] [µM] | MIC Ca [13] | MIC Ec [14] | MIC Pa [15] | MIC Ab [16] | MIC MRSA (Sa) [17] | also measured |
| --- | --- | --- | --- | --- | --- | --- | --- | --- | --- | --- | --- | --- | --- |
| Cc1c(C)c(-c2ccc(-c3ccccc3)cc2)[c-](C)c1C.Cc1ccccc1NC1=[NH+][Ir]([Cl])[NH]C(NS(=O)(=O)c2ccc([N+](=O)[O-])cc2)=N1 [Ir2] | 0.024 | 2 µg/mL | >32 µg/mL | 2 to 76 | 0.024 | 0.098 to 0.195 | 0.098 | 2 µg/mL | >32 µg/mL | >32 µg/mL | >32 µg/mL | 1 µg/mL | MIC50 Cryptococcus deuterogattii ATCC 32609 [1]: 0.098 to 0.195 µM; MIC50 Candida tropicalis ATCC 750 [2]: 0.098 to 0.195 µM; MIC50 Candida auris CBS12373 ([3]; 50% inhibition, MIC score 2): 0.024 µM; MIC Candida auris CBS10913 ([4]; second batch, ≥80 or ≥50% inhibition): 0.049 to 0.098 µM; MIC50 Candida auris CBS10913 ([4]; 50% inhibition, MIC score 2): 0.049 to 0.098 µM; MIC Cryptococcus neoformans ATCC 208821 [5, 19]: 0.024 to 0.049 µM; MIC50 Cryptococcus neoformans ATCC 208821 [5, 20]: 0.024 to 0.098 µM; HEK CC50 ([7]; initial CO-ADD screening, 20 h): >32 µg/mL; MIC50 Cryptococcus deuterogattii CBS7750 [8]: 0.012 to 0.024 µM; MIC Candida tropicalis ATCC 750 [11]: 0.098 to 0.195 µM; MIC Candida albicans ATCC 90028 [13, 19]: 0.049 to 0.098 µM; MIC50 Candida albicans ATCC 90028 [13, 20]: 0.049 to 0.098 µM; MIC50 Candida glabrata ATCC 90030 [18]: 0.098 to 0.195 µM |
| C1=CCCC=CCC1.[Cl][Pd][Cl] [Pd1] | ≤0.78 | 0.63 µM | >20 µM | 10 | ≤0.78 | 1.56 to 3.12 | 3.12 | 1.25 µM | >20 µM | >20 µM | >20 µM | >20 µM | MIC ([4]; second batch, ≥80 or ≥50% inhibition, read-out: MIC* Candida auris CBS10913): ≤0.78 µM; MIC ([5]; extended panel, second batch, ≥80 or ≥50% inhibition, read-out: MIC* Cryptococcus neoformans ATCC 208821): ≤0.78 µM; CC50 ([7]; read-out: HEK293 CC50, ranges obtained upon retesting, new batch): > 100 µM; CC50 ([7]; read-out: HEK CC50, initial CO-ADD screening, 20 h): > 20 µM; cytotoxicity: none up to stated concentration ([7]; retest): > 100 µM; MIC [11]: 6.25 µM; MIC ([13]; extended panel, second batch, ≥80 or ≥50% inhibition, read-out: MIC* Candida albicans ATCC 90028): 3.12 µM |
